The values below come from patent US6534546B1 (Chugai Seiyaku Kabushiki Kaisha, priority 1994, dated 2003).

One assay deals with iNOS (Homo sapiens, UniProt P35228). The settings on record: literature reports; cited from earlier work.
Assay [1] has as its system rat model of focal cerebral ischemia (temporary MCA occlusion). As to the kind of experiment: Brain infarct volume (TTC staining) after 3-h MCA occlusion and 24-h reperfusion. The assay is classed as in vivo.
In a further assay the target is T1, E-cNOS (Type 3) (Bos taurus, UniProt P29473).
T1 construct: the resulting supernatant was used as the crude enzyme sample of E-cNOS; endogenous in cells; host or cells: CPAE (cow pulmonary arterial endothelium cells), 1% Triton X-100 extract, 100,000 x g supernatant
Kind of assay: biochemical. Particulars: mean of one to four independent experiments; crude enzyme, 100 nM L-[3H]arginine; read-out: IC50 value, E-cNOS (Type 3).

For assay [2], the system named is rat model of focal cerebral ischemia (permanent MCA occlusion). As to the kind of experiment: Brain edema (brain water content, dry-wet method) after 48-h occlusion of the left middle cerebral artery. Type of assay: in vivo. The settings on record: 48 hours after MCA occlusion. Here is the method:
An experiment was conducted to evaluate the effectiveness of a compound within the scope of the invention using a rat model of focal cerebral ischemia. Such models were prepared by occluding the left middle cerebral artery (MCA) in accordance with the method already reported by the present inventors (Nagafuji et al., Neurosci. Lett. 147, 159-162, 1992; Nagafuji et al., in Brain Edema IX (Ito et al., eds.) 60, pp. 285-288, 1994, Springer-Verlag; Nagafuji et al., Neuroreport 6, 1541-1545, 1995). […]
The water content in the brain which was an index of brain edema formation was measured by the dry-wet method (Nagafuji et al., Neurosci. Lett. 147, 159-162, 1992) in the following manner. Forty-eight hours after the MCA occlusion, the rats were decapitated and both the right and left cerebral hemispheres were extracted from each animal within 60 seconds; the wet weight of the brain tissue of each hemisphere was measured with a chemical balance within 90 seconds. Thereafter, the hemispheres were dried in an oven at 105° C. for 3 days and their dry weights were measured. The water content in the brain was determined by the following forumula: (wet weight−dry weight)/(wet weight)×100 (%). […]

The target in a further assay is iNOS (Type 2) (Rattus norvegicus, UniProt Q06518). As to the kind of experiment: biochemical. The assay is classed as biochemical. The settings on record: for pIC50: mean of one to four independent experiments, crude enzyme, 100 nM L-[3H]arginine, without CaCl2 and calmodulin, read-out: IC50 value, iNOS (Type 2).
The target in another assay is N-cNOS (Homo sapiens, UniProt P29475). Particulars: literature reports; cited from earlier work.
For assay [3], the system named is focal cerebral ischemia in rats. The settings on record: administered after 3 hours of ischemia; Zhang et al. 1995; cited from earlier work.
The test system of assay [4] is rat model of focal cerebral ischemia. The settings on record: Nagafuji et al. 1992; cited from earlier work.
Assay [5] concerns gerbil model of forebrain ischemia. The settings on record: Nagafuji et al. 1993; cited from earlier work.
The mark [6] stands for this setting: conclusion from Tables 49, 50 and 51.

pIC50: −log10 of the molar value. Like-named read-outs stand apart in the source and are kept apart here.

Chain of iNOS (Type 2) (Q06518 whole entry, looked up): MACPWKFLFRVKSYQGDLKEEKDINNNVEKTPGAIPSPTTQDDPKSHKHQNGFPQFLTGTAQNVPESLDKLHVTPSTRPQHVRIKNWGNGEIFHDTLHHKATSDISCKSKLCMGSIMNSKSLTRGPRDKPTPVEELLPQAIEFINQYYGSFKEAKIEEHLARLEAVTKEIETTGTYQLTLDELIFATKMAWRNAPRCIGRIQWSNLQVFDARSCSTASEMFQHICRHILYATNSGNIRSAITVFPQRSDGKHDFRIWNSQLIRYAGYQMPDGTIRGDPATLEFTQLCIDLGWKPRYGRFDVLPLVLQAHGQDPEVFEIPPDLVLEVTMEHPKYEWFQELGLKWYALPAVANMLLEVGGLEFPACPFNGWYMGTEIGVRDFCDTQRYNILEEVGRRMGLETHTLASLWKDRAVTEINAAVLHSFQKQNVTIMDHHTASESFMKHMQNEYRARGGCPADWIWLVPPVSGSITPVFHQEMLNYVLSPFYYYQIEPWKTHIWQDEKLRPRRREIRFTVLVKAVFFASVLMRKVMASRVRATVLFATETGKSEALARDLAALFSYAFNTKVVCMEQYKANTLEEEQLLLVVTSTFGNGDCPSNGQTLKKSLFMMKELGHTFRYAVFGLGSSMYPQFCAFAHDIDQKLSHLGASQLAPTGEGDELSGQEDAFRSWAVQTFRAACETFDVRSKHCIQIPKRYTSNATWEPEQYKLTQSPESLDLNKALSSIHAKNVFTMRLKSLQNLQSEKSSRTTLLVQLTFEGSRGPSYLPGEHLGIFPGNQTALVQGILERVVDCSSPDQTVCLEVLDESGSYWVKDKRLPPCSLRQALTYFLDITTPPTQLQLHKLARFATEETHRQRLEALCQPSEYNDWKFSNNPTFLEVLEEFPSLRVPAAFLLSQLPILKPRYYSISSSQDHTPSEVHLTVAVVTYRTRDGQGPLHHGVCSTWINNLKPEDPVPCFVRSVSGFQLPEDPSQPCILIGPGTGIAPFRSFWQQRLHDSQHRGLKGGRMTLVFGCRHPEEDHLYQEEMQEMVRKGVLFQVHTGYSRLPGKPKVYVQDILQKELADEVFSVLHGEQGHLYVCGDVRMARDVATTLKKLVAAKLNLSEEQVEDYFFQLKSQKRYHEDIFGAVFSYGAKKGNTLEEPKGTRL
T1 sequence (P29473 2-1205): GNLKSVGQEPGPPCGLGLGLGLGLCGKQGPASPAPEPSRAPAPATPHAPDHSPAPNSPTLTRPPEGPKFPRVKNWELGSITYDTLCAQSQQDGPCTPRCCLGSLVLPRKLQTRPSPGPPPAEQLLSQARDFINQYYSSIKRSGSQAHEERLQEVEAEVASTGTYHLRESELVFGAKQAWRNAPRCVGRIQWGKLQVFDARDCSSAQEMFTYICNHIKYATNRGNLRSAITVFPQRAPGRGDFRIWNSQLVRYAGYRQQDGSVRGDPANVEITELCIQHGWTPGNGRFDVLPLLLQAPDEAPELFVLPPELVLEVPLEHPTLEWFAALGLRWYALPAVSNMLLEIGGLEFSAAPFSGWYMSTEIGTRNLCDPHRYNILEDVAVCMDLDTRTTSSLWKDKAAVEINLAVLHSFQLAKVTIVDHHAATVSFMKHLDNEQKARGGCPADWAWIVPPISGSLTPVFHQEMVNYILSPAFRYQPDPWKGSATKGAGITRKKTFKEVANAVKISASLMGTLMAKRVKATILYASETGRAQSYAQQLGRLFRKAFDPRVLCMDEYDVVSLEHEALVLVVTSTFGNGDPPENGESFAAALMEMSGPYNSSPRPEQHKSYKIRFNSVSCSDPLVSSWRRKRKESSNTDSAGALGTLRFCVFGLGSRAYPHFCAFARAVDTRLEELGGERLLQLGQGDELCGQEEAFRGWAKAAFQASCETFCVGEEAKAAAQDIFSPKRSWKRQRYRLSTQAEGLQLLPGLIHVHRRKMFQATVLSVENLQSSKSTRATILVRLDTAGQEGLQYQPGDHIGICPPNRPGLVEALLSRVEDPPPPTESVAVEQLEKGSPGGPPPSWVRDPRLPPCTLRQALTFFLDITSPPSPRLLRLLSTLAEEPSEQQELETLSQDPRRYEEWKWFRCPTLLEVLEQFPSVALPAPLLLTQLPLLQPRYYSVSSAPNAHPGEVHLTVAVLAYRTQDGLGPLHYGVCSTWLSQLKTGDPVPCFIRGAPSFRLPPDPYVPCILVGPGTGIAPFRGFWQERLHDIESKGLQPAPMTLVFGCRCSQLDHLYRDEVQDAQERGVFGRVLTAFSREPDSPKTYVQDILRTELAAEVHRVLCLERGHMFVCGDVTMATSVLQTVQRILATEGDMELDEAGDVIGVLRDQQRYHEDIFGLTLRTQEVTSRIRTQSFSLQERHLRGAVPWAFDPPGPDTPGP
Chain of N-cNOS (P29475 whole entry): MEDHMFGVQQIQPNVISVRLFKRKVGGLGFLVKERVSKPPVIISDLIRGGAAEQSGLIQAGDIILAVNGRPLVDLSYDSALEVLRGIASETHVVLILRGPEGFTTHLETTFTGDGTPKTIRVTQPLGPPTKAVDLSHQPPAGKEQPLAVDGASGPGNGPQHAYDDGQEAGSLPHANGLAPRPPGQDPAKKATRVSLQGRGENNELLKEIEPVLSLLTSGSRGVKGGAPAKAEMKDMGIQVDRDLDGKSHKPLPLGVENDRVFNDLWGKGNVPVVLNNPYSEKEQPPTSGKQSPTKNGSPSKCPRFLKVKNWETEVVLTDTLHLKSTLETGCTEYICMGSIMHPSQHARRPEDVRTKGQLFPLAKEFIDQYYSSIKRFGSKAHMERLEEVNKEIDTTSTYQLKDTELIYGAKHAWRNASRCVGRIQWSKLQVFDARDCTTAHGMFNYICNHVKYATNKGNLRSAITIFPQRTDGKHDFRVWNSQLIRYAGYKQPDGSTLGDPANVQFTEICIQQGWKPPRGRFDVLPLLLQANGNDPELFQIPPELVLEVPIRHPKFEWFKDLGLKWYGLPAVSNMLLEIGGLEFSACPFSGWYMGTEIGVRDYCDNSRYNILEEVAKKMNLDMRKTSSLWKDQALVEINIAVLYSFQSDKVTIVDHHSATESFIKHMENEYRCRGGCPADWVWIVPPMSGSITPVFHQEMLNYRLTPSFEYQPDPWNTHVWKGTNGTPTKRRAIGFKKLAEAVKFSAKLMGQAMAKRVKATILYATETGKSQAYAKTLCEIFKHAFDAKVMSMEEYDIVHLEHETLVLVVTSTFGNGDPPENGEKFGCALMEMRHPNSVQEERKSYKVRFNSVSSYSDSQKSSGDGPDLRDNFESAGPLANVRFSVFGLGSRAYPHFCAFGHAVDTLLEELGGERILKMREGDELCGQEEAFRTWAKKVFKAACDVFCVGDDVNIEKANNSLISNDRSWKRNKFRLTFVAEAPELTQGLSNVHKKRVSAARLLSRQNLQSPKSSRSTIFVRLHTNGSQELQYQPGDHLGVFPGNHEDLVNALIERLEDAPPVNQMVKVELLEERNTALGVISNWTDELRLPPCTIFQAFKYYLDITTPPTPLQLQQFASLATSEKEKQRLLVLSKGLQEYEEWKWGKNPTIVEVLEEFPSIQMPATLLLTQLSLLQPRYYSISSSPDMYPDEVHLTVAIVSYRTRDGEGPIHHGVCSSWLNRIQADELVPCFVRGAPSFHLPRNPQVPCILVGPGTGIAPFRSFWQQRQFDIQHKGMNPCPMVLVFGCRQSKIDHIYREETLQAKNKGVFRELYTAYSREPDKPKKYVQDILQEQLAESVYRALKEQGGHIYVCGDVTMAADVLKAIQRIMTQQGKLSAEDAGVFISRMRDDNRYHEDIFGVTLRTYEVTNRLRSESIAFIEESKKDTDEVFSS
Chain of iNOS (P35228 whole entry, the tested form may be a part): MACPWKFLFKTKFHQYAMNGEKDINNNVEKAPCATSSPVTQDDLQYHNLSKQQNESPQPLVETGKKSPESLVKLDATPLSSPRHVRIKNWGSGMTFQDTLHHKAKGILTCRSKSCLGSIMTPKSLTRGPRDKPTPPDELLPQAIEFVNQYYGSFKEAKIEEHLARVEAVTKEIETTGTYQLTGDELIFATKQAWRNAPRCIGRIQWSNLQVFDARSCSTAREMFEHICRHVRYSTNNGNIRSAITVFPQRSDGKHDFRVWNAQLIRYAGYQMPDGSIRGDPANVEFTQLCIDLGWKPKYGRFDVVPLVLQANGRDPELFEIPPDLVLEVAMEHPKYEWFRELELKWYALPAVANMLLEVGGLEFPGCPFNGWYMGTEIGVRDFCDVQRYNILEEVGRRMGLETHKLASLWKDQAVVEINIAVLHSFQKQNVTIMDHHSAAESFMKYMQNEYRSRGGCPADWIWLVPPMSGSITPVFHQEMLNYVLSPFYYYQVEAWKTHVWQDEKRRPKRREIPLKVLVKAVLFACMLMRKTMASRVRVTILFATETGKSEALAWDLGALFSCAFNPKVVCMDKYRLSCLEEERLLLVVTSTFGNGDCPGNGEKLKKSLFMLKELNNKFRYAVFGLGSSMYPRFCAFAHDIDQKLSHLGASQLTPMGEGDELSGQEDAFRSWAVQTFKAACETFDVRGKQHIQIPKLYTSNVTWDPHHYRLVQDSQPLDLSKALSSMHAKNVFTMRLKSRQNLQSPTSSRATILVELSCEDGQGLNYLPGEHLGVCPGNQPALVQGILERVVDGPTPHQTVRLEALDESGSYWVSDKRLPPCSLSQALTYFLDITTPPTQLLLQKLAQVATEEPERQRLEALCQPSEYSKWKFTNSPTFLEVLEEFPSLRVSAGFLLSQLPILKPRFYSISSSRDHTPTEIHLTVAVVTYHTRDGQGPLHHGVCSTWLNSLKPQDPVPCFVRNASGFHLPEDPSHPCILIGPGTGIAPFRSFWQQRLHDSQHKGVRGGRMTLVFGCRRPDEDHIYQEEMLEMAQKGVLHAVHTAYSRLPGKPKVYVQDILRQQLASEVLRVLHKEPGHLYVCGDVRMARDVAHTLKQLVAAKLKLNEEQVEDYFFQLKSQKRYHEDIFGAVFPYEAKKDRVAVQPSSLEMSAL
Description for E-cNOS (Type 3): The crude enzyme sample of E-cNOS was prepared by the following procedure. A cow pulmonary arterial endothielium cell (CPAE) was cultured in a MEM medium containing 20% FBS. […] A suitable amount of Ca- and Mg-free phosphate buffer (pH 7.4) was added to the precipitating cells and they were centrifuged at 1,000 rpm for 10 min. The same step was repeated to wash the cells which, upon addition of 50 mM Tris-HCl (pH 7.4) containing 1% Triton X-100 and 1 mM DTT, were left to stand in ice for 1 h. Subsequently, the mixture was homogenized for 3 min and kept in ice for 30 min with occasional stirring. Finally, the mixture was centrifuged at 100,000×g for 60 min and the resulting supernatant was used as the crude enzyme sample of E-cNOS.
The reaction was started by addition of L-[^3H]arginine and following incubation at 37° C. for 10 min, the reaction was terminated by addition of 2 ml of 50 mM Tris-HCl (pH 5.5) containing 1 mM EDTA and placing the mixture on ice. The reaction solution was passed through a cation-exchange resin column (Dowex AG50WX-8, Na^+ form, 3.2 ml) to separate the reaction product L-[^3H]citrulline from the unreacted residual substrate L-[^3H]arginine. The eluate was combined with another eluate resulting from the passage of a given amount of distilled water through the column and put into a minivial for recovery of L-[^3H]citrulline. Thereafter, a scintillation fluid was added and the contained radioactivity was measured with a liquid scintillation counter to determine the amount of L-[^3H]citrulline.
The activity of N-cNOS or E-cNOS was determined by subtracting the activity as detected in the absence of CaCl2 and calmodulin from the activity as detected in the presence of CaCl2 and calmodulin. […] The protein concentration of each crude enzyme sample was determined with a micro-assay kit of Biorad Co. Each experiment was conducted in a duplicate.

For `N=C(N)NN` [AG, aminoguanidine], the “reported selectivity for iNOS” value on iNOS is on record as “selectivity for iNOS”.

Regarding `CCSC(=N)Nc1cccc(C(C)(C)N)c1.Cl.Cl` [Example 96, N-(1-methyl-1-(3-(S-ethylisothioureido)phenyl)ethyl)amine dihydrochloride], the “infarction, dose dependence” value in [1] (3-h MCA occlusion and 24-h reperfusion, bolus 0.12-3.6 μg/kg then infusion 0.01-0.3 μg/kg/min) is on record as “ameliorated in a dose-dependent manner”. The “decrease of infarct volume” value in [1] (rat, in vivo, iv) is recorded as “about 79.7%”. Moreover, the pIC50 (usually the negative decadic logarithm of the IC50, by convention in mol/L) on E-cNOS (Type 3) is 6.70; on iNOS (Type 2), 7.54. The “increase in the percentage of the water content (brain edema), dose dependence” value in [2] (bolus 0.12-3.6 μg/kg then infusion 0.01-0.3 μg/kg/min) was “reduced in a dose-dependent manner”. The “percentage of the water content in the stroke hemisphere to the contralateral hemisphere” value in [2] (sustained infusion 0.3 μg/kg/min following intravenous bolus 3.6 μg/kg, p<0.01, control group about 103.8%) was “about 102.1%”. Further, on iNOS (Type 2) (setting [6]), the “iNOS inhibitory potency compared with the existing NOS inhibitors (L-MIN)” value was “more potent in inhibiting iNOS than L-MIN”. The “selectivity for iNOS compared to E-cNOS, compared with the existing NOS inhibitors (L-NIO)” value at iNOS (Type 2) (setting [6]) was “more selective inhibitory effect on iNOS than L-NIO”. Also, the “Ratio of IC50 values E-cNOS/iNOS” value on iNOS (Type 2) (index of selectivity) turned out to be 6.9.

`CSC(=N)NCCC[C@H](N)C(=O)O` [L-MIN, S-methyl-L-thiocitrulline, reference compound]: the “reported selectivity for N-cNOS” value at N-cNOS was “selectivity for N-cNOS”. For the same molecule, the pIC50 at E-cNOS (Type 3) was 6.82. Moreover, at iNOS (Type 2), the “Ratio of IC50 values E-cNOS/iNOS” value turned out to be 0.6 and the pIC50 was 6.61. Also, the “iNOS inhibitory potency compared with the existing NOS inhibitors (L-MIN)” value at iNOS (Type 2) (setting [6]) was “the strongest iNOS inhibitory activity in the existing NOS inhibitors”.

As for `COC(=O)[C@@H](N)CCCNC(=N)N[N+](=O)[O-]` [L-NAME, N^G-nitro-L-arginine methyl ester, reference compound], the pIC50 on E-cNOS (Type 3) was 6.03. In addition, the infarct volume result in assay [3] is listed as “decreased significantly”.

Regarding `N=C(NCCC[C@H](N)C(=O)O)N[N+](=O)[O-]` [L-NNA, N^G-nitro-L-arginine], the “effects against brain edema and infarction” value in assay [4] is recorded as “ameliorative effects”. Also, the “effects against neuronal cell death” value in assay [5] is “ameliorative effects”.
